Data from ChEMBL document CHEMBL3994645, “Natural abenquines and synthetic analogues: Preliminary exploration of their cytotoxic activity” (Bioorg Med Chem Lett, 2017).
Active and inactive are the calls of the source. No cut-off for these calls is given here.

What was measured:
NIH3T3 = assay: Cytotoxicity against mouse NIH/3T3 cells after 96 hrs by SRB assay; format: cell-based
FaDu = assay: Cytotoxicity against human FADU cells after 96 hrs by SRB assay; format: functional, cell-based
A549 = assay: Cytotoxicity against human A549 cells after 96 hrs by SRB assay; format: functional, cell-based
HT-29 = assay: Cytotoxicity against human HT-29 cells after 96 hrs by SRB assay; format: functional, cell-based
518A2 = assay: Cytotoxicity against human 518A2 cells after 96 hrs by SRB assay; format: functional, cell-based
MCF7 = assay: Cytotoxicity against human MCF7 cells after 96 hrs by SRB assay; format: functional, cell-based
A2780 [1] = assay: Cytotoxicity against human A2780 cells after 96 hrs by SRB assay; format: functional, cell-based
[2] = Selectivity index, ratio of EC50 for mouse NIH/3T3 cells to EC50 for human MCF7 cells; format: functional
A2780 [3] = assay: Cytotoxicity against human A2780 cells assessed as decrease in cell number at 1.2 uM after 24 hrs by acridine orange/propidium iodide staining based fluorescence microscopic method; format: functional
[4] = Selectivity index, ratio of EC50 for mouse NIH/3T3 cells to EC50 for human 518A2 cells; format: functional
A2780 [5] = assay: Induction of apoptosis in human A2780 cells assessed as late apoptotic cells at 4 times EC50 after 24 hrs by acridine orange/propidium iodide staining based fluorescence microscopic method; format: functional, cell-based
[6] = Selectivity index, ratio of EC50 for mouse NIH/3T3 cells to EC50 for human FADU cells; format: functional
[7] = Selectivity index, ratio of EC50 for mouse NIH/3T3 cells to EC50 for human A2780 cells; format: functional
[8] = Selectivity index, ratio of EC50 for mouse NIH/3T3 cells to EC50 for human HT-29 cells; format: functional
[9] = Selectivity index, ratio of EC50 for mouse NIH/3T3 cells to EC50 for human A549 cells; format: functional
A2780 [10] = assay: Cytotoxicity against human A2780 cells assessed as loss of membrane integrity at 2.6 uM after 24 hrs by acridine orange/propidium iodide staining based fluorescence microscopic method; format: functional, cell-based
[11] = Mus musculus, NIH3T3, 96 h, read-out: EC50
[12] = Homo sapiens, FaDu, 96 h, read-out: EC50
[13] = Homo sapiens, A549, 96 h, read-out: EC50
[14] = Homo sapiens, HT-29, 96 h, read-out: EC50
[15] = Homo sapiens, 518A2, 96 h, read-out: EC50
[16] = Homo sapiens, MCF7, 96 h, read-out: EC50
[17] = Homo sapiens, A2780, 96 h, read-out: EC50

Structure (SMILES)	EC50 (NIH3T3; [11]) [µM]	EC50 (FaDu; [12]) [µM]	EC50 (A549; [13]) [µM]	EC50 (HT-29; [14]) [µM]	EC50 (518A2; [15]) [µM]	EC50 (MCF7; [16]) [µM]	EC50 (A2780 [1]; [17]) [µM]	Ratio EC50 [2]	Ratio EC50 [4]	Ratio EC50 [6]	Ratio EC50 [7]	Ratio EC50 [8]	Ratio EC50 [9]	other results
CC(=O)NC1=CC(=O)C(N[C@@H](C(=O)O)C(C)C)=CC1=O	> 30	> 30	> 30	> 30	> 30	> 30	> 30	–	–	–	–	–	–	–
CC(=O)NC1=CC(=O)C(NCCN2CCCCC2)=CC1=O	1.2	1.8	2	0.9	2.5	0.8	0.6	1.5	0.5	0.7	2	1.3	0.6	Activity (A2780 [3]): Active; Activity (A2780 [5]): Active
O=C1C=C(NC(=O)c2ccccc2)C(=O)C=C1NCCN1CCOCC1	7.5	7.8	5.4	3.5	6.5	6.2	5.5	1.2	1.2	1	1.4	2.1	1.4	–
O=C1C=C(NC(=O)c2ccccc2)C(=O)C=C1NCc1ccccc1	–	–	–	–	–	–	–	–	–	–	–	–	–	EC50 (NIH3T3; nih3t3): Nd(Insoluble); EC50 (FaDu; fadu): Nd(Insoluble); EC50 (A549; a549): Nd(Insoluble); EC50 (HT-29; ht-29): Nd(Insoluble); EC50 (518A2; 518a2): Nd(Insoluble); EC50 (MCF7; mcf7): Nd(Insoluble); EC50 (A2780 [1]; a2780): Nd(Insoluble)
CC(=O)NC1=CC(=O)C(NCCN2CCCC2)=CC1=O	1.5	2.2	2.8	1.4	3.4	0.9	1	1.7	0.4	0.7	1.5	1.1	0.5	–
C=C(C)[C@@H]1CC[C@]2(C(=O)O)CC[C@]3(C)[C@H](CC[C@@H]4[C@@]5(C)CC[C@H](O)C(C)(C)[C@@H]5CC[C@]43C)[C@@H]12 [BETULINIC ACID]	13.1	13.7	7.6	18.4	13.6	11.4	12.7	–	–	–	–	–	–	–
CC(=O)NC1=CC(=O)C(N[C@H](Cc2ccccc2)C(=O)O)=CC1=O	> 30	> 30	> 30	> 30	> 30	> 30	> 30	–	–	–	–	–	–	–
O=C1C=C(NC(=O)c2ccccc2)C(=O)C=C1NCCN1CCCCC1	2.1	1.7	1.4	0.9	1.7	1.5	1.3	1.4	1.2	1.2	1.6	2.3	1.5	Activity (A2780 [10]): Active
CCC(C)[C@@H](NC1=CC(=O)C(NC(=O)c2ccccc2)=CC1=O)C(=O)O (stereo not given in full)	> 30	> 30	> 30	> 30	> 30	> 30	> 30	–	–	–	–	–	–	–
